# Data from patent EP4768499A1, “MACROCYCLIC PEPTIDE COMPOUND HAVING CELL MEMBRANE PERMEABILITY AND METABOLIC STABILITY, AND LIBRARY CONTAINING SAME” (Chugai Seiyaku Kabushiki Kaisha, priority 2023, dated 2025).
# Starred links: 1 amine or outer side, 2 acyl side, 3 side chain; linkers in the order of their positions; H or OH if unused. Non-standard residues stand in square brackets, D forms with d. Residues, ends and D or L forms follow the SMILES beside them. *: point of attachment. NMeF = CN[C@@H](Cc1ccccc1)C(=O)O; NMeGABA = CN(CCCC(=O)[*:2])[*:1]; NMeI = CC[C@H](C)[C@H](NC)C(=O)O; NMeT = CN[C@H](C(=O)O)[C@@H](C)O; hPhe = N[C@@H](CCc1ccccc1)C(=O)O; NMeβAla = CN(CCC(=O)[*:2])[*:1]; NMeL = CN[C@@H](CC(C)C)C(=O)O; NMeV = CN[C@H](C(=O)O)C(C)C; d(β3hA) = C[C@@H](N)CC(=O)O; NMeAbu = CC[C@H](NC)C(=O)O; NMeA = CN[C@@H](C)C(=O)O; dNMeA = CN[C@H](C)C(=O)O; Abu = CC[C@H](N)C(=O)O; Sar = CNCC(=O)O; tBu = CC(C)(C)*
# Legend:
# Caco-2 cells = assay: Membrane permeability test using Caco-2 cells with preincubation; type: in vitro ADME; conditions: Caco-2 cells, preincubation 20 to 24 hours; apical FaSSIF/HBSS 1% DMSO pH 6.0, basal HBSS 4% BSA pH 7.4; basal sample at 180 minutes
# [1] = as above; type: in vitro ADME; conditions: Caco-2; preincubation 20 to 24 hours; Apical FaSSIF/HBSS pH 6.0, Basal HBSS 4% BSA pH 7.4; 180 minutes; read-out: Caco2 Papp
# [2] = Metabolic stability test: liver microsomal stability assay; type: in vitro ADME, mouse; conditions: mouse liver microsomes 0.5 mg protein/mL, compound 1 µM; for microsomal CLint at 1 µM: male, pH 7.4, presence of NADPH, read-out: Mouse Hepatic Microsome CLh,int NADPH(+); for Mouse Hepatic Microsome CLh,int NADPH(-): absence of NADPH
smiles,measurement,setting,value
CC[C@H](C)[C@H]1C(=O)N[C@@H]([C@@H](C)O)C(=O)N(C)CC(=O)N(C)[C@@H](CC(C)C)C(=O)N[C@@H](CC(C)C)C(=O)N[C@H](C)CC(=O)N(C)[C@@H](C)C(=O)N[C@@H](CC(C)C)C(=O)N(C)[C@@H](C)C(=O)N(C)[C@@H](CC(C)C)C(=O)N[C@@H](COC(C)(C)C)C(=O)N(C)[C@@H](Cc2ccccc2)C(=O)N[C@@H](C(C)C)C(=O)N(C)[C@@H](CC(C)C)C(=O)N1C [pd052] (cyclo(L[NMeA][NMeL]S(tBu)[NMeF]V[NMeL][NMeI]T[Sar][NMeL]L[d(β3hA)][NMeA])),Caco2 Papp (10^-6 cm/sec),Caco-2 cells,1.01 10^-6 cm/sec
same,Papp A→B,[1],1.01 ×10⁻⁶ cm/s
same,microsomal CLint at 1 µM,[2],28 µL/min/mg
same,"Mouse Hepatic Microsome CLh,int NADPH(-)",[2],32.0 µL/min/mg Protein
CC[C@@H]1NC(=O)[C@H](CC(C)C)N(C)C(=O)[C@H]([C@@H](C)CC)NC(=O)[C@H](CC(C)C)N(C)C(=O)C[C@@H](C)NC(=O)[C@H](C(C)C)N(C)C(=O)[C@H](CC(C)C)NC(=O)[C@H](CC)N(C)C(=O)[C@H](Cc2ccccc2)N(C)C(=O)[C@@H]2CCCN2C(=O)[C@H](CC(C)C)NC(=O)[C@H]([C@@H](C)O)N(C)C(=O)[C@H](C)NC(=O)[C@H](CC(C)C)N(C)C1=O [pd053] (cyclo(A[NMeT]LP[NMeF][NMeAbu]L[NMeV][d(β3hA)][NMeL]I[NMeL][Abu][NMeL])),Caco2 Papp (10^-6 cm/sec),Caco-2 cells,1.64 10^-6 cm/sec
same,Papp A→B,[1],1.64 ×10⁻⁶ cm/s
same,microsomal CLint at 1 µM,[2],45.7 µL/min/mg
same,"Mouse Hepatic Microsome CLh,int NADPH(-)",[2],24.1 µL/min/mg Protein
CC[C@H](C)[C@@H]1NC(=O)[C@@H]2CCCN2C(=O)[C@H](C(C)C)N(C)C(=O)[C@H](CC(C)C)NC(=O)[C@@H](C)N(C)C(=O)C[C@@H](C)NC(=O)[C@H](C(C)C)N(C)C(=O)[C@H](Cc2ccccc2)N(C)C(=O)[C@H](COC(C)(C)C)NC(=O)[C@H](CC(C)C)N(C)C(=O)[C@H](C)N(C)C(=O)[C@H](CC(C)C)N(C)C(=O)[C@H]([C@@H](C)O)NC(=O)[C@H](Cc2ccccc2)N(C)C1=O [pd054] (cyclo(I[NMeF]T[NMeL][NMeA][NMeL]S(tBu)[NMeF][NMeV][d(β3hA)][dNMeA]L[NMeV]P)),Caco2 Papp (10^-6 cm/sec),Caco-2 cells,0.49 10^-6 cm/sec
same,Papp A→B,[1],0.49 ×10⁻⁶ cm/s
same,microsomal CLint at 1 µM,[2],32.5 µL/min/mg
same,"Mouse Hepatic Microsome CLh,int NADPH(-)",[2],25.1 µL/min/mg Protein
CC[C@@H]1NC(=O)[C@H](C)N(C)C(=O)[C@H](C(C)C)N(C)C(=O)[C@H]([C@@H](C)CC)NC(=O)[C@H](C)N(C)C(=O)CCCN(C)C(=O)C[C@@H](C)NC(=O)[C@H](C(C)C)N(C)C(=O)[C@H](CCc2ccccc2)NC(=O)CCN(C)C(=O)[C@H]([C@@H](C)O)N(C)C(=O)[C@H](CC(C)C)N(C)C(=O)[C@H]([C@@H](C)CC)NC(=O)[C@H](Cc2ccccc2)N(C)C1=O [pd055] (cyclo([Abu][NMeF]I[NMeL][NMeT][NMeβAla][hPhe][NMeV][d(β3hA)][NMeGABA][NMeA]I[NMeV][NMeA])),Caco2 Papp (10^-6 cm/sec),Caco-2 cells,0.12 10^-6 cm/sec
same,Papp A→B,[1],0.12 ×10⁻⁶ cm/s
same,microsomal CLint at 1 µM,[2],27.1 µL/min/mg
same,"Mouse Hepatic Microsome CLh,int NADPH(-)",[2],15.0 µL/min/mg Protein
CC[C@H](C)[C@@H]1NC(=O)[C@H](CC(C)C)N(C)C(=O)[C@H](CC(C)C)NC(=O)[C@H](C)N(C)C(=O)[C@H](Cc2ccccc2)N(C)C(=O)[C@@H]2CCCN2C(=O)[C@H](CC(C)C)N(C)C(=O)[C@H](CCc2ccccc2)NC(=O)CCN(C)C(=O)C[C@@H](C)NC(=O)[C@H](CC(C)C)N(C)C(=O)[C@H]([C@@H](C)O)NC(=O)[C@H](C)N(C)C(=O)[C@H](C(C)C)N(C)C1=O [pd056] (cyclo(I[NMeV][NMeA]T[NMeL][d(β3hA)][NMeβAla][hPhe][NMeL]P[NMeF][NMeA]L[NMeL])),Caco2 Papp (10^-6 cm/sec),Caco-2 cells,0.27 10^-6 cm/sec
same,Papp A→B,[1],0.27 ×10⁻⁶ cm/s
same,microsomal CLint at 1 µM,[2],55.9 µL/min/mg
same,"Mouse Hepatic Microsome CLh,int NADPH(-)",[2],30.2 µL/min/mg Protein
CC[C@H]1C(=O)N[C@@H](COC(C)(C)C)C(=O)N(C)[C@@H](Cc2ccccc2)C(=O)N(C)[C@@H](C(C)C)C(=O)N[C@H](C)CC(=O)N(C)[C@H](C)C(=O)N(C)[C@@H](CC(C)C)C(=O)N(C)[C@@H](C(C)C)C(=O)N2CCC[C@H]2C(=O)N[C@@H](C(C)C)C(=O)N(C)[C@@H](Cc2ccccc2)C(=O)N[C@@H]([C@@H](C)O)C(=O)N(C)[C@@H](CC(C)C)C(=O)N(C)[C@@H](C)C(=O)N1C [pd058] (cyclo([NMeA][NMeAbu]S(tBu)[NMeF][NMeV][d(β3hA)][dNMeA][NMeL][NMeV]PV[NMeF]T[NMeL])),Caco2 Papp (10^-6 cm/sec),Caco-2 cells,0.72 10^-6 cm/sec
same,Papp A→B,[1],0.72 ×10⁻⁶ cm/s
same,microsomal CLint at 1 µM,[2],16.3 µL/min/mg
same,"Mouse Hepatic Microsome CLh,int NADPH(-)",[2],14.8 µL/min/mg Protein
